These results are taken from patent US9018175B2 (Takeda GmbH, priority 2009, dated 2015).

One assay deals with T1, PDE4B1 (Homo sapiens, UniProt Q07343).
T1 construct: made in house; host or cells: SF21 insect cells (baculovirus; pCR-Bac vector)
Kind of assay: Inhibition of PDE4B1 activity (SPA, [3H]cAMP). It is filed as biochemical. The following applies: recombinant PDE4B1 expressed in SF21 cells; 0.5 pM [sic] cAMP; values given as bins; read-out: PDE4B1 inhibitory values measured as −logIC50 (converted). Summed up: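 Recombinant human PDE4B1 (Sf21 cell 1000 g supernatant) in 20 mM Tris pH 7.4, 0.1 mg/ml BSA, 5 mM Mg2+, […] with [3H]cAMP tracer, enzyme giving 10-20% conversion. After 5 min preincubation at 37 °C, 15 min reaction, stopped by SPA beads with IBMX; IC50 by non-linear regression.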

Another assay concerns the target T2, human PDE5 (Homo sapiens, UniProt O76074).
T2 construct: from tissue; host or cells: human platelets from fresh donor blood (10,000 g supernatant of sonicated platelets)
Put plainly: Inhibition of PDE5 activity (SPA, [3H]cGMP, platelet lysate). The format is biochemical. The following applies: PDE5 from human platelet lysate; values given as bins; read-out: PDE5A inhibitory values measured as −logIC50 (converted). Summed up: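 Human platelet lysate served as PDE5 source, with 1 μM motapizone and 10 nM PDE2 inhibitor present; […] plus [3H]cGMP tracer, pH 7.4, 5 mM Mg2+, 10-20% substrate turnover. After 5 min preincubation, 15 min at 37 °C, stopped with SPA beads and IBMX; IC50 by non-linear regression.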

T1 sequence (Q07343 whole entry): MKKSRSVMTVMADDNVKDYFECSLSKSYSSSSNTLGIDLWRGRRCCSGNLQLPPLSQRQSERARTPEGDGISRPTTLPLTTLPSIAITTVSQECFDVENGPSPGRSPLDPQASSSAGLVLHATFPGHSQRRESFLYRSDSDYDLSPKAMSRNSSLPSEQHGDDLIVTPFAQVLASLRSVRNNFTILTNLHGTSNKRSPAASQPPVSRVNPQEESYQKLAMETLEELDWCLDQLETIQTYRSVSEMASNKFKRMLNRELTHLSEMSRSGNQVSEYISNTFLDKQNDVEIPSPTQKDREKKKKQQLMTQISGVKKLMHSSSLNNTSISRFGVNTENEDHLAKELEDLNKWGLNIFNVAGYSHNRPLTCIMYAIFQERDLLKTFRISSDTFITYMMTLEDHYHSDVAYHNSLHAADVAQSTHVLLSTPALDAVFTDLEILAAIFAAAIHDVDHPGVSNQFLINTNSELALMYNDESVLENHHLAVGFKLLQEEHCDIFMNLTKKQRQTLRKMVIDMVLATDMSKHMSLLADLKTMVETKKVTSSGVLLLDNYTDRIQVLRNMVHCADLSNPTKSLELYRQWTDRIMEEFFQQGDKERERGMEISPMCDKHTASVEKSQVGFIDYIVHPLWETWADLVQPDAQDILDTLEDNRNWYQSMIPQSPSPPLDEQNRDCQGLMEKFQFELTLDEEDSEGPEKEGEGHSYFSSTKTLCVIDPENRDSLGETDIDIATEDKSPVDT

On to `CCOc1cc2c(cc1OC)C(c1ccc(C(=O)N3CCC(n4c(=O)c5sc(-c6ccccc6)cc5n(Cc5cnc(CC)o5)c4=O)CC3)cc1)=N[C@@H]1CCSC[C@H]21` [Example 9, 3-[1-({4-[(4aR,10bR)-9-ethoxy-8-methoxy-3,4,4a,10b-tetrahydro-1H-thiopyrano[4,3-c]isoquinolin-6-yl]phenyl}carbonyl)piperidin-4-yl]-1-[(2-ethyl-1,3-oxazol-5-yl)methyl]-6-phenylthieno[3,2-d]pyrimidine-2,4(1H,3H)-dione], for which the IC50 is 1 to 10 nM at PDE4B1 and 10 to 100 nM on human PDE5.

Regarding `CCOc1cc2c(cc1OC)C(c1ccc(C(=O)N3CCC(n4c(=O)c5sc(-c6ccccc6F)cc5n(Cc5nnn(CC)n5)c4=O)CC3)cc1)=N[C@@H]1CCSC[C@H]21` [Example 38, 3-[1-({4-[(4aR,10bR)-9-ethoxy-8-methoxy-3,4,4a,10b-tetrahydro-1H-thiopyrano[4,3-c]isoquinolin-6-yl]phenyl}carbonyl)piperidin-4-yl]-1-[(2-ethyl-2H-tetrazol-5-yl)methyl]-6-(2-fluorophenyl)thieno[3,2-d]pyrimidine-2,4(1H,3H)-dione], the IC50 on PDE4B1 is over 10 nM; at human PDE5, under 10 nM.

As to `CCOc1cc2c(cc1OC)C(c1cccc(C(=O)N3CCC(n4c(=O)c5sc(-c6cc(OC)ccc6OC)cc5n(Cc5nnn(CC)n5)c4=O)CC3)c1)=N[C@@H]1CCSC[C@H]21` [Example 37, 6-(2,5-dimethoxyphenyl)-3-[1-({3-[(4aR,10bR)-9-ethoxy-8-methoxy-3,4,4a,10b-tetrahydro-1H-thiopyrano[4,3-c]isoquinolin-6-yl]phenyl}carbonyl)piperidin-4-yl]-1-[(2-ethyl-2H-tetrazol-5-yl)methyl]thieno[3,2-d]pyrimidine-2,4(1H,3H)-dione], the IC50 on PDE4B1 was over 10 nM; at human PDE5, under 10 nM.

Regarding `CCOc1cc2c(cc1OC)C(c1ccc(C(=O)N3CCC(n4c(=O)c5sc(-c6ccccc6)cc5n(Cc5nnc(COC)o5)c4=O)CC3)cc1)=N[C@@H]1CCSC[C@H]21` [Example 8, 3-[1-({4-[(4aR,10bR)-9-ethoxy-8-methoxy-3,4,4a,10b-tetrahydro-1H-thiopyrano[4,3-c]isoquinolin-6-yl]phenyl}carbonyl)piperidin-4-yl]-1-{[5-(methoxymethyl)-1,3,4-oxadiazol-2-yl]methyl}-6-phenylthieno[3,2-d]pyrimidine-2,4(1H,3H)-dione], the IC50 at PDE4B1 is under 1 nM; on human PDE5 it was 10 to 100 nM.

`CCOc1cc2c(cc1OC)C(c1ccc(C(=O)N3CCC(n4c(=O)c5sc(-c6cc(F)ccc6OC)cc5n(Cc5nnn(CC)n5)c4=O)CC3)cc1)=N[C@@H]1CCSC[C@H]21` [Example 34, 3-[1-({4-[(4aR,10bR)-9-ethoxy-8-methoxy-3,4,4a,10b-tetrahydro-1H-thiopyrano[4,3-c]isoquinolin-6-yl]phenyl}carbonyl)piperidin-4-yl]-1-[(2-ethyl-2H-tetrazol-5-yl)methyl]-6-(5-fluoro-2-methoxyphenyl)thieno[3,2-d]pyrimidine-2,4(1H,3H)-dione]: the IC50 at PDE4B1 was over 10 nM; on human PDE5, 10 to 100 nM.

`CCOc1cc2c(cc1OC)C(c1ccc(C(=O)N3CCC(n4c(=O)c5sc(-c6ccccc6)cc5n(Cc5nnc(CC)o5)c4=O)CC3)cc1)=N[C@@H]1CCSC[C@H]21` [Example 4, 3-[1-({4-[(4aR,10bR)-9-ethoxy-8-methoxy-3,4,4a,10b-tetrahydro-1H-thiopyrano[4,3-c]isoquinolin-6-yl]phenyl}carbonyl)piperidin-4-yl]-1-[(5-ethyl-1,3,4-oxadiazol-2-yl)methyl]-6-phenylthieno[3,2-d]pyrimidine-2,4(1H,3H)-dione]: the results for the IC50 at PDE4B1 and on human PDE5 were under 1 nM and 10 to 100 nM, respectively.

On to `CCOc1cc2c(cc1OC)C(c1ccc(C(=O)N3CCC(n4c(=O)c5sc(-c6ccccc6)cc5n(Cc5ocnc5C)c4=O)CC3)cc1)=N[C@@H]1CCSC[C@H]21` [Example 54, 3-[1-({4-[(4aR,10bR)-9-ethoxy-8-methoxy-3,4,4a,10b-tetrahydro-1H-thiopyrano[4,3-c]isoquinolin-6-yl]phenyl}carbonyl)piperidin-4-yl]-1-[(4-methyl-1,3-oxazol-5-yl)methyl]-6-phenylthieno[3,2-d]pyrimidine-2,4(1H,3H)-dione], for which the IC50 at PDE4B1 is under 1 nM; at human PDE5 it was over 100 nM.

Consider `CCOc1cc2c(cc1OC)C(c1ccc(C(=O)N3CCC(n4c(=O)c5sc(-c6ccccc6)cc5n(Cc5nc(CCCOC)no5)c4=O)CC3)cc1)=N[C@@H]1CCSC[C@H]21` [Example 50, 3-[1-({4-[(4aR,10bR)-9-ethoxy-8-methoxy-3,4,4a,10b-tetrahydro-1H-thiopyrano[4,3-c]isoquinolin-6-yl]phenyl}carbonyl)piperidin-4-yl]-1-{[3-(3-methoxypropyl)-1,2,4-oxadiazol-5-yl]methyl}-6-phenylthieno[3,2-d]pyrimidine-2,4(1H,3H)-dione], for which the IC50 at PDE4B1 is under 1 nM; at human PDE5, 10 to 100 nM.

In the case of `CCOc1cc2c(cc1OC)C(c1ccc(C(=O)N3CCC(n4c(=O)c5sc(-c6ccccc6)cc5n(Cc5noc(C)n5)c4=O)CC3)cc1)=N[C@@H]1CCSC[C@H]21` [Example 2, 3-[1-({4-[(4aR,10bR)-9-ethoxy-8-methoxy-3,4,4a,10b-tetrahydro-1H-thiopyrano[4,3-c]isoquinolin-6-yl]phenyl}carbonyl)piperidin-4-yl]-1-[(5-methyl-1,2,4-oxadiazol-3-yl)methyl]-6-phenylthieno[3,2-d]pyrimidine-2,4(1H,3H)-dione], the IC50 is 1 to 10 nM at PDE4B1 and under 10 nM at human PDE5.

In the case of `CCOc1cc2c(cc1OC)C(c1ccc(C(=O)N3CCC(n4c(=O)c5sc(-c6ccccc6)cc5n(Cc5csc(C)n5)c4=O)CC3)cc1)=N[C@@H]1CCSC[C@H]21` [Example 10, 3-[1-({4-[(4aR,10bR)-9-ethoxy-8-methoxy-3,4,4a,10b-tetrahydro-1H-thiopyrano[4,3-c]isoquinolin-6-yl]phenyl}carbonyl)piperidin-4-yl]-1-[(2-methyl-1,3-thiazol-4-yl)methyl]-6-phenylthieno[3,2-d]pyrimidine-2,4(1H,3H)-dione], the IC50 was 1 to 10 nM on PDE4B1 and over 100 nM at human PDE5.

As to `CCOc1cc2c(cc1OC)C(c1ccc(C(=O)N3CCC(n4c(=O)c5sc(-c6ccccc6)cc5n(Cc5cnc(C)s5)c4=O)CC3)cc1)=N[C@@H]1CCSC[C@H]21` [Example 20, 3-[1-({4-[(4aR,10bR)-9-ethoxy-8-methoxy-3,4,4a,10b-tetrahydro-1H-thiopyrano[4,3-c]isoquinolin-6-yl]phenyl}carbonyl)piperidin-4-yl]-1-[(2-methyl-1,3-thiazol-5-yl)methyl]-6-phenylthieno[3,2-d]pyrimidine-2,4(1H,3H)-dione], the IC50 at PDE4B1 was 1 to 10 nM; at human PDE5 it was under 10 nM.

Turning to `CCOc1cc2c(cc1OC)C(c1ccc(C(=O)N3CCC(n4c(=O)c5sc(-c6ccccc6)cc5n(Cc5sccc5C)c4=O)CC3)cc1)=N[C@@H]1CCSC[C@H]21` [Example 56, 3-[1-({4-[(4aR,10bR)-9-ethoxy-8-methoxy-3,4,4a,10b-tetrahydro-1H-thiopyrano[4,3-c]isoquinolin-6-yl]phenyl}carbonyl)piperidin-4-yl]-1-[(3-methylthiophen-2-yl)methyl]-6-phenylthieno[3,2-d]pyrimidine-2,4(1H,3H)-dione], the IC50 is 1 to 10 nM on PDE4B1 and over 100 nM on human PDE5.

Regarding `CCOc1cc2c(cc1OC)C(c1cccc(C(=O)N3CCC(n4c(=O)c5sc(-c6ccc7c(c6)OCO7)cc5n(Cc5nnn(CC)n5)c4=O)CC3)c1)=N[C@@H]1CCSC[C@H]21` [Example 31, 6-(1,3-benzodioxol-5-yl)-3-[1-({3-[(4aR,10bR)-9-ethoxy-8-methoxy-3,4,4a,10b-tetrahydro-1H-thiopyrano[4,3-c]isoquinolin-6-yl]phenyl}carbonyl)piperidin-4-yl]-1-[(2-ethyl-2H-tetrazol-5-yl)methyl]thieno[3,2-d]pyrimidine-2,4(1H,3H)-dione], the values for the IC50 on PDE4B1 and on human PDE5 were over 10 nM and under 10 nM, respectively.

For `CCOc1cc2c(cc1OC)C(c1cccc(C(=O)N3CCC(n4c(=O)c5sc(-c6ccccc6)cc5n(Cc5nnn(CC)n5)c4=O)CC3)c1)=N[C@@H]1CCSC[C@H]21` [Example 26, 3-[1-({3-[(4aR,10bR)-9-ethoxy-8-methoxy-3,4,4a,10b-tetrahydro-1H-thiopyrano[4,3-c]isoquinolin-6-yl]phenyl}carbonyl)piperidin-4-yl]-1-[(2-ethyl-2H-tetrazol-5-yl)methyl]-6-phenylthieno[3,2-d]pyrimidine-2,4(1H,3H)-dione], the results for the IC50 at PDE4B1 and at human PDE5 were over 10 nM and under 10 nM, respectively.

For `CCOc1cc2c(cc1OC)C(c1ccc(C(=O)N3CCC(n4c(=O)c5sc(-c6ccccc6)cc5n(Cc5nccn5C)c4=O)CC3)cc1)=N[C@@H]1CCSC[C@H]21` [Example 53, 3-[1-({4-[(4aR,10bR)-9-ethoxy-8-methoxy-3,4,4a,10b-tetrahydro-1H-thiopyrano[4,3-c]isoquinolin-6-yl]phenyl}carbonyl)piperidin-4-yl]-1-[(1-methyl-1H-imidazol-2-yl)methyl]-6-phenylthieno[3,2-d]pyrimidine-2,4(1H,3H)-dione], the IC50 on PDE4B1 was under 1 nM; on human PDE5 it was over 100 nM.
